This test is described as follows: Inhibition of HIV-1 Mutant HIV-1 RT enzymes containing the single amino acid substitution V179D.

Molecules are shown by their SMILES.

One may read the Ki as the dissociation constant of the complex between target and ligand, obtained from inhibition or displacement. Lower therefore signals higher affinity.

Molecule `Cc1cc2nc(OCCNC(=S)Nc3ccc(Br)cn3)c3cccn3c2cc1C` [1-(5-Bromo-pyridin-2-yl)-3-[2-(7,8-dimethyl-pyrrolo[1,2-a]quinoxalin-4-yloxy)-ethyl]-thiourea] displayed a Ki of 0.8 µM. Next, `S=C(NCCOc1nc2cc(Cl)ccc2n2cccc12)Nc1ccc(Br)cn1` [1-(5-Bromo-pyridin-2-yl)-3-[2-(7-chloro-pyrrolo[1,2-a]quinoxalin-4-yloxy)-ethyl]-thiourea]: 0.07 µM.

Source of the values: BindingDB's records for doi:10.1021/jm0010365 (Universita' Degli Studi Di Salerno, 2001).
